System: Calu-1 cells
Test: Cell viability and PARP cleavage in Calu-1 cells
Type: cell-based, human
Details: honokiol 20 μM, 0.5% serum
Method: In FIG. 17A, T24 and Calu1 cells (obtained from the American Type Culture Collection) were plated in DMEM containing 10% serum for 48 hr and then shifted to either 10% serum or 0.5% serum overnight as indicated. Honokiol (20 μM) or control ethanol was then added for 4 hr as indicated. [^3H]-Myristate was added with the honokiol. After 4 hr, BtOH (0.7%) was added for 20 min, at which time the cells were harvested and the level of phosphatidyl-BtOH (P-Bt) was determined as in FIGS. 12A-C. The experiments shown are representative of at least two independent experiments. In FIG. 17B, T24 and Calu-1 cells were plated in DMEM with 10% serum for 48 hr then changed to DMEM containing either 10% or 0.5% serum overnight as indicated. Honokiol (20 μM) or control ethanol was then added either at the time of changing media (24 hr), or 4 hr before harvesting as in FIGS. 14A-E, at which time the cells were examined for cell viability or PARD cleavage. […]
Cell viability was determined by trypan blue exclusion. […] After 10 min, trypan blue uptake (dead cells) was determined by counting on a hemocytometer. Apoptosis was evaluated by examination of cleavage of the caspase 3 substrate PARP as described previously (Chen et al., “Alternative Phospholipase D/mTOR Survival Signal in Human Breast Cancer Cells,” Oncogene 24:672-9 (2005), which is hereby incorporated by reference in its entirety). […]

SMILES: C=CCc1ccc(O)c(-c2ccc(O)c(CC=C)c2)c1 [honokiol, Honokiol]
- PARP cleavage: induced
- cell death: induced
